Columns and labels:
[1] = In vitro metabolic stability: β-oxidation reaction in rat liver mitochondria fraction; format: in vitro ADME; conditions: parent compound after NADPH-independent β-oxidation reaction, 37°C, 30 min, tested as isomer mixtures, average ± SD of 3 experiments
Experimental: A mixture of the compound F and compound J of the present invention described in Table 1 (F:J = 52:41, synthesized in Example 14), and a mixture of compounds wherein the tetrazole groups at C-1 of compound F and compound J are respectively substituted by carboxylic acid (referred to as carboxylate form, F:J = 54:34, synthesized in Example 15) were tested.
First, a mitochondria fraction was prepared from the rat liver according to the following Reference A. Then, in reference to the method of […] et al. described in the following References B and C, an NADPH-independent β oxidation reaction was studied. The reaction was carried out at 37°C for 30 min, and stopped with a methanol solution containing a suitable internal standard substance. Each compound was quantified by the internal standard method using a high performance liquid chromatography mass spectrometry apparatus (LC-MS/MS). The compound residual ratio after metabolic reaction of compounds F, J and each carboxylate form thereof in rat mitochondria fraction is shown in the following Table 2 in average ± standard deviation of 3 experiments. Table 2 Residual Ratio of Parent Compound after β-Oxidation Reaction

Mouse EP4 = target: T1, Mouse EP4 (Mus musculus, UniProt P32240); assay: Receptor affinity, tritium-labeled PGE2 binding to membranes of transfected COS-7 cells
T1 construct: expressed in transfected cells; host or cells: COS-7
T1 sequence (P32240 whole entry): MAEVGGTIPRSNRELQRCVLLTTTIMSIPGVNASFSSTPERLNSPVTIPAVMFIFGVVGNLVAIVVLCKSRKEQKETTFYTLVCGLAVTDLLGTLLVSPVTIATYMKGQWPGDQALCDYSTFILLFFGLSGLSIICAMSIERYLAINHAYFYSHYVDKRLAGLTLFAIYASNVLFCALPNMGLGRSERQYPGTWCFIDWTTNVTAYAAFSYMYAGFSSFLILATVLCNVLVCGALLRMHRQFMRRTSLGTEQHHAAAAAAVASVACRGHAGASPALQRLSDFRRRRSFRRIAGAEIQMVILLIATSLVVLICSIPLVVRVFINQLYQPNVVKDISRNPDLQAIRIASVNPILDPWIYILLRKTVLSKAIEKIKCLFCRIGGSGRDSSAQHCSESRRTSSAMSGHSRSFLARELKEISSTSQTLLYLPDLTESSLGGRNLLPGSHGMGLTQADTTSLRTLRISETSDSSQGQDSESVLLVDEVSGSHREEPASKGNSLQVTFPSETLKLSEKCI
Experimental: (§1) PG receptor affinity of compound F and compound J of the present invention was evaluated. Compound F used was one synthesized in Example 9, and compound J was prepared by separating and purifying the compound synthesized in Example 14 with a column (the same preparations were used in the following Examples). COS-7 cells were transfected with the genes of mouse EP4, human EP1-4 or human IP to overexpress the receptor and then the cell membranes were collected. […] The dissociation constant Kd value was obtained and inhibition constant Ki value of each test compound was determined in a conventional method.

Human EP2 = target: T2, Human EP2 (Homo sapiens, UniProt P43116); assay: as above
T2 construct: expressed in transfected cells; host or cells: COS-7
T2 sequence (P43116 whole entry): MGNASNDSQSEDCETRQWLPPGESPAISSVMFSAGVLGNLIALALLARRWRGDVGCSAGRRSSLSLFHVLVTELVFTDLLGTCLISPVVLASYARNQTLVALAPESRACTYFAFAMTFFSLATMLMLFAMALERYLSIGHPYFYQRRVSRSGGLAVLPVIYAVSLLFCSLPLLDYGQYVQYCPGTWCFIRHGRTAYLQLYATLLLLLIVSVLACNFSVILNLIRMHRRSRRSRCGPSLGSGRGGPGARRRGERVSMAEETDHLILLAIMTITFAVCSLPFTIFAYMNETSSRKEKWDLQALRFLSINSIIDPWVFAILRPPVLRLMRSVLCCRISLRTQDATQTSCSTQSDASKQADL
Experimental: as §1

IP-10 = assay: Suppressive effect on cytokine production, whole blood stimulated with lipopolysaccharide, ELISA; format: cell-based; conditions: human whole blood, indometacin, 48 hr, geometric mean of three volunteers
Human EP4 = target: T3, Human EP4 (Homo sapiens, UniProt P35408); assay: EP4 agonist activity, CRE-LUC reporter gene in transfected COS-7 cells; format: cell-based
T3 construct: expressed in transfected cells; host or cells: COS-7
T3 sequence (P35408 whole entry): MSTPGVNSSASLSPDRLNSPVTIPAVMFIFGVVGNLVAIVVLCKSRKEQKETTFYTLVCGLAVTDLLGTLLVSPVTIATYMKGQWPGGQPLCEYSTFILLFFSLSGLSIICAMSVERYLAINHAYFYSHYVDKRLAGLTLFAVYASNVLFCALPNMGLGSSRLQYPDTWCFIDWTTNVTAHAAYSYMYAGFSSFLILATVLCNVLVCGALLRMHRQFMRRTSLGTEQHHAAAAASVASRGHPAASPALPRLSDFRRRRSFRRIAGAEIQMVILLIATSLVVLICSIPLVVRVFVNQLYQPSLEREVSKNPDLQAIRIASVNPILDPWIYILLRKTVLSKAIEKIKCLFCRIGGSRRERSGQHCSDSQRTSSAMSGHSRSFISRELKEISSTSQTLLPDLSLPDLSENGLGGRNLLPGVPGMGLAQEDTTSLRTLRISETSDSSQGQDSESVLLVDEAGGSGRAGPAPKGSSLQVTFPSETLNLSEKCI
Experimental: In brief, human EP4 gene and CRE-LUC reporter gene were transfected into COS-7 cells. The cells were treated with a test compound one day later, and incubated for 3 hr. The cells were washed, a luminescence substrate was added, and the luminescence intensity was measured for the agonist activity.

[2] = test system: concanavalin A-induced hepatitis; assay: Prophylactic effect on concanavalin A-induced hepatitis model in mice; format: in vivo, BALB/c mice; conditions: oral 1 hr before Con A, compound F 1 mg/10 mL/kg, prednisolone 5 mg/10 mL/kg, 20 hr after Con A
Experimental: BALB/c mice (female, 7 weeks old, Japan SLC) were purchased, acclimated for 1 week and used for the study. Except the no-induction group, Con A (type IV, Sigma-Aldrich) dissolved in saline was administered from the tail vein of the mice at a dose of 12.5 mg/10 mL/kg to induce hepatitis. Twenty hr later, the mice were subjected to laparotomy under ether anesthesia. A 0.5 mL of blood sample was collected from the caudal vena cava and heparinized plasma was obtained to measure plasma ALT and AST activities. Test substances were compound F (1 mg/10 mL solution), prednisolone (Nacalai Tesque, 5 mg/10 mL suspension (with 0.5 w/v% methylcellulose)) and water for injection (administered to the control group), which were orally administered at a volume of 10 mL/kg 1 hr before Con A injection. Seven to 9 animals were used for each group. After logarithmic transformation of the data, one-way analysis of variance was performed for statistical evaluation.

[3] = test system: ethanol-induced gastric mucosal injury; assay: Ethanol-induced gastric mucosal injury model in rats; format: in vivo, SD rats
Experimental: Male SD rats (7 weeks old, Charles River) were purchased through Oriental BioService Inc., acclimated for 1 week and used for the study. The rats were grouped based on the body weight, placed in a clean cage set with a wire mesh floor one day before the study, fasted for 19 hr (without water for last 3 hr), and orally administered with ethanol (special grade, Nacalai Tesque, Lot No. V8A5862, 1.5 mL) in all groups to induce gastric mucosal injury. Compound F was orally administered at doses of 0.01, 0.1 and 1 mg/kg 30 min before induction of gastric mucosal injury at a volume of 5 mL/kg. To the control group was orally administered a solvent (1 vol% ethanol solution) at 5 mL/kg in the same manner. Eight animals were used for each group.
The rats were bled to death from the abdominal aorta and caudal vena cava under ether anesthesia after 1 hr from the ethanol administration, and the stomach was isolated. The isolated stomach was immediately filled with 2 vol% neutral formalin solution (6 mL) and fixed for 15 min. The stomach was incised along the midline of the greater curvature from the cardiac part to the pyloric part, and extended on a vinyl chloride board. The length and width of each ulcer were measured under a stereomicroscope, the area was calculated, and the sum thereof was taken as the total ulcer area.

[4] = test system: indomethacin-induced small intestinal injury; assay: Indomethacin-induced small intestinal injury model in rats; format: in vivo, SD rats
Experimental: Male SD rats, 7 weeks old (Charles River) were purchased, acclimated for 1 week and used for the study. The rats were grouped based on the body weight and subcutaneously ) administered with indomethacin (SIGMA, Lot No. 19F0018) at 15 mg/5 mL/kg to all groups to induce small intestinal injury. Compound F at doses of 0.01, 0.1 and 1 mg/kg was orally administered at a volume of 5 mL/kg 30 min before and 6 hr after the subcutaneous administration of indomethacin. To the control group was orally administered a solvent (1 vol% ethanol solution) at 5 mL/kg in the same manner. Eight animals were used for each group.
The rats were intravenously administered with 2 mL of 10 mg/mL Evans blue solution under ether anesthesia 23.5 hr after the indomethacin administration. After 30 min, the rats were bled to death from the abdominal aorta and caudal vena cava under ether anesthesia and the small intestine was isolated. The isolated small intestine was filled with an adequate amount (about 35 mL) of 2 vol% neutral formalin solution, and fixed for about 15 min. Thereafter, the total small intestine was incised along the mesenteric attachment site, and extended on a vinyl chloride board. The length and width of each ulcer were measured under a stereomicroscope, the area was calculated, and the sum thereof was taken as the total ulcer area.

Residual ratio [1]: 91.6±6.8%
Ki (Mouse EP4): 68 nM
Ki (Human EP2): 570 nM
IC50 (IP-10): 1.14 nM
EC50 (Human EP4): 3.33 nM
SMILES: Cc1cccc([C@@H](C)[C@H](O)/C=C/[C@@H]2[C@@H]3[C@H](C[C@H]2O)O/C(=C\CCCc2nnn[nH]2)C3(F)F)c1 [Compound F, 4-[(Z)-(1S,5R,6R,7R)-6-[(1E,3R,4R)-3-hydroxy-4-(m-tolyl)-1-pentenyl]-7-hydroxy-2-oxa-4,4-difluoro-bicyclo[3.3.0]octan-3-ylidene]-1-(tetrazol-5-yl)butane]
effect on increase of plasma ALT activity [2]: significantly and strongly suppressed the increase
effect on increase of plasma AST activity [2]: significantly and strongly suppressed the increase
effect on total ulcer area (stomach) ([3]; oral 1 mg/kg 30 min before ethanol): almost completely reduced the area
effect on total ulcer area (stomach) ([3]; oral 0.01, 0.1 and 1 mg/kg 30 min before ethanol): significantly reduced the total ulcer area in a dose-dependent manner from 0.01 mg/kg
effect on total ulcer area in the small intestine ([4]; oral 1 mg/kg 30 min before and 6 hr after indomethacin): completely reduced the area
effect on total ulcer area in the small intestine ([4]; oral 0.01, 0.1 and 1 mg/kg 30 min before and 6 hr after indomethacin): significantly reduced the ulcer area in a dose-dependent manner from a dose of 0.1 mg/kg administration

— EP2545917B1, “NOVEL EP4 AGONIST” (Kaken Pharmaceutical Co., Ltd., priority 2010, dated 2011)
